Results taken from patent US20240246945A1, “NOVEL COMPOUND FOR CROP PROTECTANT” (LG CHEM, LTD., priority 2010, published 2024).

test system: Myzus persicae (Sulzer); experiment: Insecticidal Activity Test 1 against Myzus persicae (Sulzer), foliar spray on potted peppers, approximately 5 ppm; format: in vivo; conditions: in Capsicum, 120 h, approximately 5 ppm drug solution in water, counted on day 5 after spraying, read-out: mortality rate rating
Description: Insecticidal Activity Test 1 Against Myzus persicae (Sulzer)
(§1) Peppers were planted in plastic pots with a diameter of 8 cm and a height of 8 cm, Myzus persicae (Sulzer) was reproduced therein, and then the number of Myzus persicae (Sulzer) in each pot was investigated. Some of the compounds prepared in the examples were selected, the compound was dispersed in water to be diluted to approximately 5 ppm, thereby preparing a drug solution.
The drug solution was sprayed onto the foliage of the peppers planted in the pots using a hand sprayer and air-dried, and the pots were stored in a green house.
(§2) On day 5 after the drug spraying, the number of Myzus persicae (Sulzer) parasitic on each pepper was counted, a mortality rate was calculated from the following formula, and the rating of each compound was investigated.
(§3) [formula] • A rating: 90% to 100% mortality • B rating: 80% or more and less than 90% mortality • C rating: less than 80% mortality

SMILES | mortality at 5 µg/mL
CCN(C(=O)c1cnc(-c2noc(N3CCCC3)n2)n1C)c1cccnc1 [Ia-1-1-27, N-ethyl-1-methyl-N-(pyridin-3-yl)-2-(5-(pyrrolidin-1-yl)-1,2,4-oxadiazol-3-yl)-1H-imidazole-5-carboxamide] | 90 to 100%
CCN(C(=O)c1cnc(-c2noc(N3CCCCC3)n2)n1C)c1cccnc1 [Ia-1-1-26, N-ethyl-1-methyl-2-(5-(piperidin-1-yl)-1,2,4-oxadiazol-3-yl)-N-(pyridin-3-yl)-1H-imidazole-5-carboxamide] | 90 to 100%
CCSc1ccccc1-c1nc(-c2ncc(C(=O)N(CC)c3cccnc3)n2C)no1 [Ia-1-1-43, N-ethyl-2-(5-(2-(ethylthio)phenyl)-1,2,4-oxadiazol-3-yl)-1-methyl-N-(pyridin-3-yl)-1H-imidazole-5-carboxamide] | 90 to 100%
CCN(C(=O)c1cnc(C2=NC3(CCC(C(F)(F)F)CC3)ON2C)n1C)c1cccnc1 (centres unmarked) [Ia-1-5-6, N-ethyl-1-methyl-2-(2-methyl-8-(trifluoromethyl)-1-oxa-2,4-diazaspiro[4.5]dec-3-en-3-yl)-N-(pyridin-3-yl)-1H-imidazole-5-carboxamide] | 90 to 100%
CCN(C(=O)c1cnc(-c2nnc(C3CC3)o2)n1C)c1cccnc1 [Ia-1-3-2, 2-(5-cyclopropyl-1,3,4-oxadiazol-2-yl)-N-ethyl-1-methyl-N-(pyridin-3-yl)-1H-imidazole-5-carboxamide] | 90 to 100%
CCN(C(=O)c1cnc(C2=NOC3(CCSCC3)N2C)n1C)c1cccnc1 [Ia-1-4-22, N-ethyl-1-methyl-2-(4-methyl-1-oxa-8-thia-2,4-diazaspiro[4.5]dec-2-en-3-yl)-N-(pyridin-3-yl)-1H-imidazole-5-carboxamide] | 90 to 100%
CCN(C(=O)c1cnc(-c2noc(C)n2)n1C)c1cccnc1 [Ia-1-1-1, N-ethyl-1-methyl-2-(5-methyl-1,2,4-oxadiazol-3-yl)-N-(pyridin-3-yl)-1H-imidazole-5-carboxamide] | 90 to 100%

test system: Myzus persicae (Sulzer); experiment: Insecticidal Activity Test 2 against Myzus persicae (Sulzer), foliar spray on potted peppers, approximately 25 ppm; format: in vivo; conditions: in Capsicum, 120 h, approximately 25 ppm drug solution in water, counted on day 5 after spraying, read-out: mortality rate rating
Description: Insecticidal Activity Test 2 Against Myzus persicae (Sulzer)
as §1, with “25” for “5”
The drug solution was sprayed onto the foliage of the peppers planted in the pots and air-dried, and the pots were stored in a green house.
as §2, §3

SMILES | mortality at 25 µg/mL
CCN(C(=O)c1cnc(-c2noc(-c3ccccc3F)n2)n1C)c1cccnc1 [Ia-1-1-24, N-ethyl-1-methyl-2-(5-(2-fluorophenyl)-1,2,4-oxadiazol-3-yl)-N-(pyridin-3-yl)-1H-imidazole-5-carboxamide] | 90 to 100%
CCN(C(=O)c1cnc(-c2noc(-c3cccnc3)n2)n1C)c1cccnc1 [Ia-1-1-30, N-ethyl-1-methyl-N-(pyridin-3-yl)-2-(5-(pyridin-3-yl)-1,2,4-oxadiazol-3-yl)-1H-imidazole-5-carboxamide] | 90 to 100%
CCN(C(=O)c1cnc(C2=NOC3(CCC(C(F)(F)F)CC3)N2C)n1C)c1cccnc1 (centres unmarked) [Ia-1-4-25, N-ethyl-1-methyl-2-(4-methyl-8-(trifluoromethyl)-1-oxa-2,4-diazaspiro[4.5]dec-2-en-3-yl)-N-(pyridin-3-yl)-1H-imidazole-5-carboxamide] | 90 to 100%
CCN(C(=O)c1cnc(-c2noc(C(C)C)n2)n1C)c1cccnc1 [Ia-1-1-6, N-ethyl-2-(5-isopropyl-1,2,4-oxadiazol-3-yl)-1-methyl-N-(pyridin-3-yl)-1H-imidazole-5-carboxamide] | 90 to 100%
CCN(C(=O)c1cnc(-c2noc(N3CCOCC3)n2)n1C)c1cccnc1 [Ia-1-1-37, N-ethyl-1-methyl-2-(5-morpholino-1,2,4-oxadiazol-3-yl)-N-(pyridin-3-yl)-1H-imidazole-5-carboxamide] | 90 to 100%
CCN(C(=O)c1cnc(C2=NOC3(CCOCC3)N2)n1C)c1cccnc1 [Ia-1-4-10, N-ethyl-1-methyl-N-(pyridin-3-yl)-2-(1,8-dioxa-2,4-diazaspiro[4.5]dec-2-en-3-yl)-1H-imidazole-5-carboxamide] | 90 to 100%
CCN(C(=O)c1cnc(-c2noc(N(C(C)=O)C(C)C)n2)n1C)c1cccnc1 [Ia-1-1-38, N-ethyl-2-(5-(N-isopropylacetamido)-1,2,4-oxadiazol-3-yl)-1-methyl-N-(pyridin-3-yl)-1H-imidazole-5-carboxamide] | 90 to 100%
CCN(C(=O)c1cnc(-c2noc(-c3ccncc3)n2)n1C)c1cccnc1 [Ia-1-1-31, N-ethyl-1-methyl-N-(pyridin-3-yl)-2-(5-(pyridin-4-yl)-1,2,4-oxadiazol-3-yl)-1H-imidazole-5-carboxamide] | 90 to 100%
CCCc1nc(-c2ncc(C(=O)N(CC)c3cccnc3)n2C)no1 [Ia-1-1-7, N-ethyl-1-methyl-2-(5-propyl-1,2,4-oxadiazol-3-yl)-N-(pyridin-3-yl)-1H-imidazole-5-carboxamide] | 90 to 100%
CCN(C(=O)c1cnc(C2=NC3(CCN(C(=O)OC(C)(C)C)CC3)ON2C)n1C)c1cccnc1 [Ia-1-5-3, tert-butyl 3-(5-(ethyl(pyridin-3-yl)carbamoyl)-1-methyl-1H-imidazole-2-yl)-2-methyl-1-oxa-2,4,8-triazaspiro[4.5]dec-3-en-8-carboxylate] | 90 to 100%
CCN(C(=O)c1cnc(-c2noc(C(C)(C)C)n2)n1C)c1cccnc1 [Ia-1-1-5, 2-(5-(tert-butyl)-1,2,4-oxadiazol-3-yl)-N-ethyl-1-methyl-N-(pyridin-3-yl)-1H-imidazole-5-carboxamide] | 90 to 100%
CCN(C(=O)c1cnc(-c2noc(CC3CC3)n2)n1C)c1cccnc1 [Ia-1-1-16, 2-(5-(cyclopropylmethyl)-1,2,4-oxadiazol-3-yl)-N-ethyl-1-methyl-N-(pyridin-3-yl)-1H-imidazole-5-carboxamide] | 90 to 100%
CCN(C(=O)c1cnc(C2=NOC(c3cccnc3F)N2)n1C)c1cccnc1 (centres unmarked) [Ia-1-4-34, N-ethyl-2-(5-(2-fluoropyridin-3-yl)-4,5-dihydro-1,2,4-oxadiazol-3-yl)-1-methyl-N-(pyridin-3-yl)-1H-imidazole-5-carboxamide] | 90 to 100%
CCN(C(=O)c1cnc(-c2noc(C(F)F)n2)n1C)c1cccnc1 [Ia-1-1-2, 2-(5-(difluoromethyl)-1,2,4-oxadiazol-3-yl)-N-ethyl-1-methyl-N-(pyridin-3-yl)-1H-imidazole-5-carboxamide] | 90 to 100%
CCN(C(=O)c1cnc(-c2noc(-c3cocn3)n2)n1C)c1cccnc1 [Ia-1-1-22, N-ethyl-1-methyl-2-(5-(oxazol-4-yl)-1,2,4-oxadiazol-3-yl)-N-(pyridin-3-yl)-1H-imidazole-5-carboxamide] | 90 to 100%
CCN(C(=O)c1cnc(C2=NOC3(CCOCC3)N2C(=O)C2CC2)n1C)c1cccnc1 [Ia-1-4-12, 2-(4-(cyclopropanecarbonyl)-1,8-dioxa-2,4-diazaspiro[4.5]dec-2-en-3-yl)-N-ethyl-1-methyl-N-(pyridin-3-yl)-1H-imidazole-5-carboxamide] | 90 to 100%
CCNc1nc(-c2ncc(C(=O)N(CC)c3cccnc3)n2C)no1 [Ia-1-1-35, N-ethyl-2-(5-(ethylamino)-1,2,4-oxadiazol-3-yl)-1-methyl-N-(pyridin-3-yl)-1H-imidazole-5-carboxamide] | 90 to 100%
CCN(C(=O)c1cnc(C2=NC(c3cccnc3F)ON2C)n1C)c1cccnc1 (centres unmarked) [Ia-1-5-9, N-ethyl-2-(5-(2-fluoropyridin-3-yl)-2-methyl-2,5-dihydro-1,2,4-oxadiazol-3-yl)-1-methyl-N-(pyridin-3-yl)-1H-imidazole-5-carboxamide] | 90 to 100%
CCN(C(=O)c1cnc(C2=NOC(c3ccccc3F)N2)n1C)c1cccnc1 (centres unmarked) [Ia-1-4-33, N-ethyl-2-(5-(2-fluorophenyl)-4,5-dihydro-1,2,4-oxadiazol-3-yl)-1-methyl-N-(pyridin-3-yl)-1H-imidazole-5-carboxamide] | 90 to 100%
CCN(C(=O)c1cnc(C2=NC(C)(C)ON2C)n1C)c1cccnc1 [Ia-1-5-1, N-ethyl-1-methyl-N-(pyridin-3-yl)-2-(2,5,5-trimethyl-2,5-dihydro-1,2,4-oxadiazol-3-yl)-1H-imidazole-5-carboxamide] | 90 to 100%
CCN(C(=O)c1cnc(-c2noc(-c3cnco3)n2)n1C)c1cccnc1 [Ia-1-1-23, N-ethyl-1-methyl-2-(5-(oxazol-5-yl)-1,2,4-oxadiazol-3-yl)-N-(pyridin-3-yl)-1H-imidazole-5-carboxamide] | 90 to 100%
CCN(C(=O)c1cnc(C2=NOC(C)(C)N2C(=O)C2CC2)n1C)c1cccnc1 [Ia-1-4-3, 2-(4-(cyclopropanecarbonyl)-5,5-dimethyl-4,5-dihydro-1,2,4-oxadiazol-3-yl)-N-ethyl-1-methyl-N-(pyridin-3-yl)-1H-imidazole-5-carboxamide] | 90 to 100%
CCN(C(=O)c1cnc(-c2noc(NC(C)C)n2)n1C)c1cccnc1 [Ia-1-1-33, N-ethyl-2-(5-(isopropylamino)-1,2,4-oxadiazol-3-yl)-1-methyl-N-(pyridin-3-yl)-1H-imidazole-5-carboxamide] | 90 to 100%
CCN(C(=O)c1cnc(C2=NOC(CC)(CC)N2)n1C)c1cccnc1 [Ia-1-4-4, 2-(5,5-diethyl-4,5-dihydro-1,2,4-oxadiazol-3-yl)-N-ethyl-1-methyl-N-(pyridin-3-yl)-1H-imidazole-5-carboxamide] | 90 to 100%
CCN(C(=O)c1cnc(-c2noc(-c3ccccc3)n2)n1C)c1cccnc1 [Ia-1-1-21, N-ethyl-1-methyl-2-(5-phenyl-1,2,4-oxadiazol-3-yl)-N-(pyridin-3-yl)-1H-imidazole-5-carboxamide] | 90 to 100%
